Source: patent US20250064781A1, “METHODS OF TREATING, AMELIORATING, AND/OR PREVENTING STRESS-RELATED DISORDER” (Yale University, priority 2021, published 2025)
Entries after “also recorded” stand apart in the source; their conditions may differ. Structures can show the parent of a compound that is named as a salt. Where two headings read alike, the source gives them in different places.

Experiments:
[1] = test system: rhesus monkeys performing a spatial working memory task; test: spatial working memory task (oculomotor delayed response, ODR) in monkeys exposed to stress; format: in vivo, Rhesus monkeys (Macaca mulatta); conditions: for performance in spatial working memory task under stress: FIGS. 3 and 4, 0.1 mg/kg pretreatment before the stressor; for performance in spatial working memory task under stress / performance (percent correct) in spatial working memory task under stress: versus VEH+STRESS; for effect on stress-induced prefrontal deficits: rhesus monkeys, dose not stated
Description: Rhesus monkeys (Macaca mulatta) exposed to stress or vehicle and administered with RS17053 (“RS17”) or vehicle (“VEH”) (FIG. 1) or administered with silodosin (“SIL”) or vehicle (“VEH”) were subjected to the oculomotor delayed response (ODR) tasks similar to those as described previously (Datta et al., J Neurosci. 2019 Apr. 3;39(14):2722-2734, the entirety of the journal article is hereby incorporated herein by reference). Specifically, the experiments were performed as the follows:
The monkeys were seated in primate chairs with their heads fixed and faced a 27-inch computer monitor 30 inches in front of them. The monkeys' eye positions were monitored with the ISCAN Eye Movement Monitoring System. The monkeys were pretrained on the visuospatial ODRtask, which required the subject to make a memory-guided saccade to a remembered visuospatial target. The ODR task was generated by the PICTO system (custom-designed, Windows-based data acquisition software). A central small white circle was illuminated on the computer monitor, which served as the fixation target. To initiate a trial, the animal fixated this central target and maintained fixation for 0.5 s (fixation period), whereupon a cue (the same sized white circle) was illuminated for a period of 0.5 s (cue period) at 1 of 8 peripheral targets located at an eccentricity of 13° with respect to the fixation spot. After the cue was extinguished, a 2.5 s delay period followed. The subject was required to maintain central fixation throughout both the cue presentation and the delay period. At the end of the delay, the fixation spot was extinguished, which instructed the monkey to make a memory-guided saccade to the location where the cue had been shown before the delay period. A trial was considered successful if the subject's response was completed within 0.5 s of the offset of the fixation spot and was within 2° around the correct cue location. The subject was rewarded with fruit juice immediately after every successful response. The position of the stimulus was randomized over trials such that it had to be remembered on a triα1-by-trial basis. The intertrial intervals (ITIs) were at least 3 s. The subject performed 1000-1500 trials per session.

[2] = target: T1, α1B-adrenergic receptor subtype (α1B-AR) (Homo sapiens, UniProt P35368); conditions: cited from earlier work
T1 sequence (P35368 1-520): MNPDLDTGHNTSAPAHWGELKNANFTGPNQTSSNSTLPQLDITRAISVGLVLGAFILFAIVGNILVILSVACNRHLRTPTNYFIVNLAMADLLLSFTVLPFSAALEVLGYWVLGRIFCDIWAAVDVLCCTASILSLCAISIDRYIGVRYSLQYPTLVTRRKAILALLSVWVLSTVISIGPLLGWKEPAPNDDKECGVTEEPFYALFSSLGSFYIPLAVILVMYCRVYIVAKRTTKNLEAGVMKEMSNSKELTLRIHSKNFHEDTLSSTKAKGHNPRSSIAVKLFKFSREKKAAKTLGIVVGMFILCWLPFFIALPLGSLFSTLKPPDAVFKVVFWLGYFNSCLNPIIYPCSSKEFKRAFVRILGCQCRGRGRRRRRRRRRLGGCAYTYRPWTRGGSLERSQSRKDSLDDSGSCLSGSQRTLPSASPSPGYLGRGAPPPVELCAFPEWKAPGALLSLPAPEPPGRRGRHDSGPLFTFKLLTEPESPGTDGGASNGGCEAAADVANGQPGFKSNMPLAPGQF

[3] = target: T2, α1D-adrenergic receptor subtype (α1D-AR) (Homo sapiens, UniProt P25100); conditions: cited from earlier work
T2 sequence (P25100 1-572): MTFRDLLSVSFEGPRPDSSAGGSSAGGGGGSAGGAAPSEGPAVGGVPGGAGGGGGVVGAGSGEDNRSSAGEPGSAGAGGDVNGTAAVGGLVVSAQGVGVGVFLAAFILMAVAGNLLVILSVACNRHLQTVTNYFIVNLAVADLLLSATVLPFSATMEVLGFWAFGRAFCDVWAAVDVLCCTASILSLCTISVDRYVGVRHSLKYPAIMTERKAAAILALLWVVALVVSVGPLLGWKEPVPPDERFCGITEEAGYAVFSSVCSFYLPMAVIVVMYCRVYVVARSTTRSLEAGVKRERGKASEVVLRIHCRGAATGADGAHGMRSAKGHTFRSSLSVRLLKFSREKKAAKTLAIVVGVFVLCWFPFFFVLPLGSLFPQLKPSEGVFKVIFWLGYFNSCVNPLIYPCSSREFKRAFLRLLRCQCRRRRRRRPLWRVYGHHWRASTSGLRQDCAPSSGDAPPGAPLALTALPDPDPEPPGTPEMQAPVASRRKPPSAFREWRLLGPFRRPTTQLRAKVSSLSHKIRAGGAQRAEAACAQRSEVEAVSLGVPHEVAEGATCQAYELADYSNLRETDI

[4] = target: T3, α1A-adrenergic receptor subtype (α1A-AR) (Homo sapiens, UniProt P35348); conditions: concluded from the Kenny et al. pKi values
T3 sequence (P35348 1-466): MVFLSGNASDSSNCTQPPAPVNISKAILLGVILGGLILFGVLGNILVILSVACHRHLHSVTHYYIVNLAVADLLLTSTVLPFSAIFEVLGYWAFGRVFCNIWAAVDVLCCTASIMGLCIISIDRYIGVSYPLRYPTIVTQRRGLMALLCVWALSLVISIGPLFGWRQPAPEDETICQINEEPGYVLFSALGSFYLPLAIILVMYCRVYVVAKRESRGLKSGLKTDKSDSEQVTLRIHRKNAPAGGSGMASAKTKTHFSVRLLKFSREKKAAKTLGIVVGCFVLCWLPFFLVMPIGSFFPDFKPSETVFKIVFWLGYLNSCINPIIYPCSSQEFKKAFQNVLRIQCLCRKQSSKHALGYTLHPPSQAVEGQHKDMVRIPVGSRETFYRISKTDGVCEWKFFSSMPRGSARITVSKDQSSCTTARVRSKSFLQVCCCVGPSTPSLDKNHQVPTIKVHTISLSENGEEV

[5] = target: T3, α1A-adrenergic receptor subtype (α1A-AR); conditions: Kenny et al., cited from earlier work; for α1-adrenoceptor subtype preference (in words): as previously reported; for pKi for α1A-AR: cloned human receptor, Br J Pharmacol. 1996
[6] = CHMP assessment report for Silodyx
[7] = cloned human receptor, Kenny et al., Br J Pharmacol. 1996
[8] = Williams et al. Br J Pharmacol. 1999

Molecule	performance in spatial working memory task under stress [1]	effect on stress-induced prefrontal deficits [1]	α1-adrenoceptor subtype preference (in words) [5]	pKi for α1B-AR [2, 7]	pKi for α1D-AR [3, 7]	pKi for α1A-AR [5]	further results
C[C@H](Cc1cc2c(c(C(N)=O)c1)N(CCCO)CC2)NCCOc1ccccc1OCC(F)(F)F [silodosin]	protected from stress exposure	completely blocked the stress-induced prefrontal deficits	–	–	–	–	pKi for α1B-AR [2, 6]: 8.19; pKi for α1D-AR [3, 6]: 8.66
COc1cc2nc(N3CCN(C(=O)C4COc5ccccc5O4)CC3)nc(N)c2cc1OC (centres unmarked) [doxazosin]	–	–	–	–	–	–	α1-adrenoceptor subtype preference (in words) [4]: has a preference for the α1B subtype, rather than the α1A subtype
CCOc1ccccc1OCCNC(C)Cc1ccc(OC)c(S(N)(=O)=O)c1 (centres unmarked) [tamsulosin, 5-(2-{[2-(2-Ethoxyphenoxy)ethyl]amino}propyl)-2-methoxybenzene-1-sulfonamide]	protected from stress exposure	effective for treating disorders consequent of stress	preference for α1A-AR and α1D-AR over α1B-AR	7.0±0.08	8.1±0.04	–	effect on stress-induced prefrontal deficits ([1]; listed as tamulosin): completely blocked the stress-induced prefrontal deficits
CC(C)(Cc1c[nH]c2ccc(Cl)cc12)NCCOc1ccccc1OCC1CC1 [RS17053, N-[2-(2-cyclopropylmethoxyphenoxy)ethyl]-5-chloro-α,α-dimethyl-1H-indole-3-ethanamine]	–	completely blocked the stress-induced prefrontal deficits	strong preference for α1A-AR	7.3±0.09	7.1±0.09	8.6±0.09	performance (percent correct) in spatial working memory task under stress ([1]; FIG. 1, pretreatment 0.1 mg/kg-1 mg/kg before the stressor): protected from stress exposure; performance (percent correct) in spatial working memory task under stress ([1]; FIG. 2, low dose 0.01 mg/kg pretreatment before the stressor): blocked the stress-induced prefrontal deficits; also recorded: protected from stress exposure; effect on spatial working memory performance without stress ([1]; monkeys not subjected to stress, VEH+VEH vs. RS17+VEH): no significant effect
Cc1c[nH]c(=O)n(CCCN2CCN(c3ccccc3OCC(F)(F)F)CC2)c1=O [RS 100329 hydrochloride, 5-Methyl-3-[3-[3-[4-[2-(2,2,2,-trifluroethoxy)phenyl]-1-piperazinyl]propyl]-2,4-(1H,3H)-pyrimidinedione hydrochloride]	–	–	–	–	–	–	selectivity for α1A-AR over α1B-AR [2, 8]: 126 fold; selectivity for α1A-AR over α1D-AR [3, 8]: 50 fold
1-(4-amino-6,7-dimethoxy-2-quinazolinyl)-4-[[2-methoxy-6-(1-methylethyl)phenoxy]acetyl]piperazine [Rec 15/2739]	–	–	–	–	8.6±0.07	9.0±0.07	–
